Results: US20250051409A1, “MODULATORS OF PHOSPHATIDYLSERlNE DECARBOXYLASE AND USE THEREOF” (THE NATIONAL INSTITUTE FOR BIOTECHNOLOGY IN THE NEGEV LTD., priority 2021, published 2025)
Like-named read-outs stand apart in the source and are kept apart here. Square brackets hold non-standard residues; d marks the D form. Ends that are not written are not given here. Peptide text beside a SMILES is read from it. Dmt = Cc1cc(O)cc(C)c1C[C@H](N)C(=O)O; Orn = NCCC[C@H](N)C(=O)O

Assays:
SMAC = experiment: IF staining of peptide-treated tumor sections, SMAC; assay type: in vivo, nude mice; settings: peptide-treated A549 tumors
Experimental: (§1) Sections of paraffin-embedded control and peptide treated tumors were IF stained using specific antibodies and subjected to quantification. Relative staining intensity for the nuclear proliferation marker, Ki-67 (and its (A), SMAC (B) and NF-kB (C). Results represent the means±SEM (n=3) ***P≤0.001. (G) Sections from the indicated tumors were stained with H & E, with some areas were magnified.
(§2) In order to reduce non-specific binding, sections were incubated in 10% normal goat serum for 2 h, then incubated with primary antibodies (Table 1) overnight at 4° C. […] Sections were washed with water, counterstained with hematoxylin, and mounted with Vectashield mounting medium (Vector Laboratories, Burlingame, CA).

NF-κB = experiment: IF staining of peptide-treated tumor sections, NF-κB; assay type: in vivo, nude mice; settings: peptide-treated A549 tumors, immunofluorescence
Experimental: as §1, §2

A549 cell xenografts [1] = tested on: A549 cell xenografts
Experimental: (§4) A549 cells were S.C. inoculated into female nude mice (7×10^6 cells/mouse). Tumors sizes were measured (using a digital caliper) and volumes were calculated. When tumors volumes reached 60-100 mm3 (day 12), the mice were divided into 2 groups and xenografts were untreated (●) or treated with HtrA2/Omi-derived D-amino acid peptide targeted to the mitochondria (D-HTRA2-M, o). The tumors were injected 3 times a week to a final concentration of 50 μM. […] Tumors of A549 cell xenografts were dissected, photographed (B) and weighted (C). […] Results represent the means±SEM (n=8), **P≤0.01, ***P≤0.001.
(§5) A549 cells were inoculated subcutaneously into female nude mice (7×10^6 cells/mouse). Tumors sizes were measured (using a digital caliper) and volumes were calculated. When tumors volumes reached 60-100 mm3 (day 12), the mice were divided into 2 groups (control and treatment) and in the treatment group xenografts were treated with HtrA2/Omi-derived D-amino acid peptide (SEQ ID NO:35) targeted to the mitochondria. The tumors were injected 3 times a week to a final concentration of 50 μM or the peptide was administered by intravenous injection 2 times a week to a final concentration of 20 mg/kg. Tumors of A549 cell xenografts were dissected, photographed and weighted.

A549 lung cancer cell = assay type: cell-based, human
Experimental: (B) Inhibition of PSD activity by the 2F3 (●) or 1C11 (◯) peptide. PSD activity was measured using the DSB-3 method. (C-E) Cell proliferation inhibition following incubation of A549 cells with the indicated mitochondria- or nuclear-targeted peptides for 24 h in a serum-free medium, and cell proliferation was assayed using the SRB method. Results are the means±SEM (n=3). (F) A549 cells were incubated for 90 min with 5 μM of the mitochondria- or nuclear targeted FITC-labelled peptides, immunostained with anti-SMAC antibodies and with DAPI and visualized by confocal microscope for subcellular localization. Arrows indicates nuclear (n=3). Scale bars represent 20
(A) A549 cells were incubated with the indicated concentration of 1C11-HTRA2-derived peptide targeted to the mitochondrion with the targeting sequence added to the N-terminus (N-Ter) or the C-terminus (C-Ter). (B) Mitochondrion targeted 1C11-HTRA2-derived peptide was modified by replacing the three amino acids in the C or the N-terminus of the peptide, or all amino acids in the peptide with the D-confirmation of the amino acid (underlined amino acids)). Following 24 h incubation in a serum-free medium, cell proliferation was assayed using the SRB method. (C) The concentration required for 50% inhibition of cell proliferation (IC50) is presented. Results are the means±SEM (n=3).
A549 (human lung adenocarcinoma epithelial cell), HEK-293T (human embryonic kidney), H1563/CRL-5875 (non-small cell lung cancer adenocarcinoma), H-358 (bronchioalveolar carcinoma), HaCaT (spontaneously transformed aneuploid immortal human skin keratinocyte), and WI-38 (fibroblast-like fetal lung cell) cell lines were purchased from the American Type Culture Collection (ATCC) (Manassas, VA), and were maintained as per ATCC instructions. Cells were maintained in ATCC recommended medium at 37° C. in an incubator with 5% CO2. Cell lines were routinely tested for Mycoplasma contamination. For SMAC overexpression, cells were seeded (200,000 cells/well) on 6-well culture plates and allowed to adhere overnight. These adhered cells were transfected with PVMV3.1-SMAC or empty vector using the JetPRIME transfection reagent (Illkirch, France), according to the manufacturers' instructions. Medium was changed 6 h post transfection, and cells were harvested 48 h post transfection.
Cells were seeded in 96-well cell culture plates (8,000/well) and allowed to grow for 48 h. After washing with PBS, cells were fixed with 10% trichloroacetic acid, and stained with SRB for 20 min. Excess SRB were removed, and cells were washed with 1% acetic acid. SRB extraction was done using 100 mM Tris-base, and absorbance at 510 nm was determined using an Infinite M1000 plate reader (Tecan, Mannedorf, Switzerland).

A-549 cells = experiment: Cell death on DSB-3 staining; assay type: cell-based, human; settings: data not shown
Experimental: A549 and A549-SMAC-KO cells were seeded on sterile cover slips in 24-well cell culture plates (75,000 cells/well) and allowed to adhere for 24 h. MitoTracker® (250 nM in DMEM+10% FBS) was added, and plates were incubated in a CO2 incubator for 30 min at 37° C. Cells were washed with PBS and incubated with DSB3 (10 μM in reaction buffer; 40 mM NaCl, 1 mM KPO4, pH 7.4) in a C02 incubator for 2 h. Cells were washed with PBS, fixed with 4% PFA for 20 min at room temperature, washed with PBS, and stained with DAPI for 20 min at room temperature. Cover slips were washed with PBS and mounted with Vectashield, and imaging was done using confocal microscopy (Olympus 1X81).

A549 cell xenografts [2] = settings: tumors injected 3 times a week, final concentration 50 μM
Experimental: as §4, §5

different cell lines = settings: cited from earlier work
[3] = tested on: A549 lung cancer tumor xenograft; experiment: A549 xenograft tumor growth under si-hSMAC-A; assay type: in vivo, athymic nude mice
Excerpt: (§3) Treatment was initiated when the average tumor volume in each group reached ˜50 mm^3. Results are presented as the mean tumor volume±SEM. […] Scale bars represent 50, 25 or 15 μm as indicated. […] Results are the means±SEM.
Male athymic nude mice (6-8 weeks old) were obtained from Envigo and were kept in Ben-Gurion University (Israel) animal facility in temperature-controlled rooms and provided with water and food pellets ad libitum. Lung cancer A549 (3×10^6) cells were implanted subcutaneously on the dorsal flanks. Tumor growth was recorded using digital calipers, and volumes were calculated using formula […] (L=length; W=width). Mice were divided randomly into three groups once the average tumor volume reached ˜80 mm^3, and were treated subcutaneously with si-NT (group 1) or si-hSMAC (group 2-350 nM group 3-700 nM final concentration) mixed with JetPEI reagent three times a week. Mice were sacrificed at the end of experiment, and the tumors were excised and processed for immunohistochemistry or frozen in liquid nitrogen for immunoblotting and RNA isolation. All procedures involving mice were approved by the Institutional Animal Care and Use Committee.

SMAC/Diablo = SMAC/Diablo level in si-hSMAC-A treated tumors (immunoblot, IHC); assay type: in vivo, athymic nude mice; settings: relative to si-NT-TTs
Experimental: as §3, §2
Cells were harvested and washed twice with ice-cold PBS, and the pellets were lysed on ice for 30 min in a lysis buffer (50 mM Tris-HCl, pH 7.5, 150 mM NaCl, 1 mM EDTA, 1.5 mM MgCl2, 10% glycerol, 1% Triton X-100), freshly supplemented with a protease inhibitor cocktail (Calbiochem), incubated on ice for 20 min and centrifuged thereafter (10 min, 12000 g). The protein concentration of the supernatant was determined and […] were stored at −80° C. until used for gel electrophoresis and immunoblotting. Protein samples (10-20 μg) were subjected to SDS-PAGE and immunoblotting, using the selected primary antibodies, followed by incubation with HRP-conjugated secondary antibodies. HRP activity was determined using enhanced chemiluminescent substrate (Pierce Chemical, Rockford, IL). Band intensity was quantified using FUSION-FX (Vilber Lourmat, France).

Ki-67 = Ki-67 IHC in si-hSMAC-A treated tumors; assay type: in vivo, athymic nude mice
Experimental: as §3, §2

[4] = tested on: A549 lung cancer tumor xenograft; experiment: TUNEL staining of si-hSMAC-A treated tumors; assay type: in vivo, athymic nude mice; settings: data not shown
[5] = tested on: total phospholipids (PLs), PC, and PE; experiment: PL, PC and PE levels in si-hSMAC-A treated tumors; assay type: in vivo, athymic nude mice; settings: relative to si-NT-TTs

Cc1cc(O)cc(C)c1C[C@H](NC(=O)[C@@H](CCCNC(=N)N)NC(=O)[C@@H](CC(C)C)NC(=O)[C@@H](CCCNC(=N)N)NC(=O)[C@@H](C)NC(=O)[C@@H](Cc1c[nH]c2ccccc12)NC(=O)[C@@H](CC(C)C)NC(=O)[C@@H](CO)NC(=O)[C@H]1CCCN1C(=O)[C@H](NC(=O)CNC(=O)[C@@H](Cc1ccc(O)cc1)NC(=O)[C@H](NC(=O)[C@H](NC(=O)[C@@H](CCCNC(=N)N)NC(=O)[C@@H](C)NC(=O)[C@@H](CCCNC(=N)N)NC(=O)[C@H]1CCCN1C(=O)[C@@H](CC(=O)O)NC(=O)[C@@H](CO)NC(=O)[C@H](NC(=O)CNC(=O)[C@@H](CO)NC(=O)[C@H](NC(=O)[C@@H](CC(C)C)NC(=O)[C@@H](CC(C)C)NC(=O)[C@@H](C)N)[C@H](C)O)[C@H](C)O)C(C)C)[C@H](C)O)[C@H](C)O)C(=O)N[C@@H](CCCN)C(=O)N[C@@H](Cc1ccccc1)C(N)=O [1C11-HTRA2-All-D-Mito] (H-[dA][dL][dL][dT][dS]G[dT][dS][dD][dP][dR][dA][dR][dV][dT][dY]G[dT][dP][dS][dL][dW][dA][dR][dL][dR][Dmt][Orn]F-NH2; N-terminus and C-terminus assumed)
decrease in expression of SMAC in tumors (SMAC): 80%
decrease in NF-κB expression in tumors (NF-κB): ~90%
tumor growth (A549 cell xenografts [1]; intravenously, 20 mg/kg): inhibits tumor growth
decrease of tumor weight (A549 cell xenografts [1]; intravenously, 20 mg/kg, 2 times a week): 50%
inhibition of tumor growth (A549 cell xenografts [1]; mouse, in vivo, iv): 50%

CC(C)C[C@H](NC(=O)[C@H](CC(=O)O)NC(=O)[C@H](CO)NC(=O)[C@H](CO)NC(=O)[C@H](Cc1c[nH]cn1)NC(=O)[C@H](CC(=O)O)NC(=O)[C@@H](NC(=O)CNC(=O)[C@H](CCC(N)=O)NC(=O)[C@H](Cc1ccccc1)NC(=O)[C@H](C)NC(=O)[C@H](CCCNC(=N)N)NC(=O)[C@H](CO)NC(=O)[C@H](CO)NC(=O)[C@H](CCC(N)=O)NC(=O)[C@H](CC(N)=O)NC(=O)[C@@H]1CCCN1C(=O)[C@H](CCCCN)NC(=O)[C@H](CCCNC(=N)N)NC(=O)[C@@H](CCCNC(=N)N)NC(=O)[C@@H](N)CCCNC(=N)N)[C@@H](C)O)C(=O)N[C@@H](C)C(=O)N[C@@H](Cc1ccccc1)C(=O)N[C@@H](CC(=O)O)C(=O)N[C@@H](Cc1ccccc1)C(=O)N[C@@H](CC(C)C)C(=O)N[C@@H](CO)C(=O)N[C@@H](CCC(N)=O)C(=O)N[C@@H](CCC(N)=O)C(=O)O [R-{D-Arg}-RK-2I8] (H-R[dR]RKPNQSSRAFQGTDHSSDLAFDFLSQQ-OH; N-terminus and C-terminus assumed)
IC50 (A549 lung cancer cell; 24 h): > 100 µM

ALSTSSPIPSVPQSQAQPQTGSGAS [2F3]
IC50 (A549 lung cancer cell): 19.6 µM

Distyrylbenzene-bis-aldehyde [DSB-3]
cell death (A-549 cells): induces no cell death

FQQLTCVLPILDNLLKANVINKQEH [1E14]
effect on cell growth (A549 lung cancer cell; targeted to the mitochondria or the nucleus): no effect on cell growth

SEQ ID NO:35: HtrA2/Omi-derived D-amino acid peptide targeted to the mitochondria ([dA][dL][dL][dT][dS]G[dT][dS][dD][dP][dR][dA][dR][dV][dT][dY]G[dT][dP][dS][dL][dW][dA][dR][dL])
decrease in tumor weight (A549 cell xenografts [2]): up to 80%
increase of tumor volume (A549 cell xenografts [2]; after 28 days): about 4 fold

[dR][Dmt][Orn]F [mtCPP-1]
induction of apoptosis (different cell lines): did not induce apoptosis
toxicity in cell lines (different cell lines): no toxicity

si-hSMAC-A: Human SMAC/Diablo-specific siRNA, sense SEQ ID NO:33 and anti-sense SEQ ID NO:34 (sense AAGCGGUGUUUCUCAGAATTGTT; antisense AACAAUUCUGAGAAACCCGCTT; chemistry not given here)
tumor volume reduction relative to si-NT-treated tumors ([3]; si-hSMAC-A at 350 nM): 50%
tumor volume reduction relative to si-NT-treated tumors ([3]; si-hSMAC-A at 700 nM): 85%
decrease of SMAC/Diablo level in treated tumors (SMAC/Diablo): 75%
expression of Ki-67 in treated tumors (Ki-67): highly reduced
cell death in treated tumors [4]: No cell death was detected
decrease of PC in treated tumors [5]: 65%
decrease of PLs in treated tumors [5]: 50%
increase of PE in treated tumors [5]: 200%
